Experiments:
[1] = target: Rho-associated protein kinase 2 (Homo sapiens) (UniProt O75116); experiment: Inhibition of human ROCK2 catalytic domain expressed in baculovirus assessed as substrate phosphorylation using fluorescence-labelled peptides as substrate at 0.06 uM after 90 mins by microfluidic peptide phosphorylation assay
[2] = target: Casein kinase I isoform delta (Homo sapiens) (UniProt P48730); experiment: Inhibition of human CK1D catalytic domain expressed in Escherichia coli cell assessed as substrate phosphorylation using fluorescence-labelled peptides as substrate at 0.06 uM after 90 mins by microfluidic peptide phosphorylation assay
Sequence of Casein kinase I isoform delta (Homo sapiens) (P48730 whole entry, looked up, the tested form may be a part, canonical isoform): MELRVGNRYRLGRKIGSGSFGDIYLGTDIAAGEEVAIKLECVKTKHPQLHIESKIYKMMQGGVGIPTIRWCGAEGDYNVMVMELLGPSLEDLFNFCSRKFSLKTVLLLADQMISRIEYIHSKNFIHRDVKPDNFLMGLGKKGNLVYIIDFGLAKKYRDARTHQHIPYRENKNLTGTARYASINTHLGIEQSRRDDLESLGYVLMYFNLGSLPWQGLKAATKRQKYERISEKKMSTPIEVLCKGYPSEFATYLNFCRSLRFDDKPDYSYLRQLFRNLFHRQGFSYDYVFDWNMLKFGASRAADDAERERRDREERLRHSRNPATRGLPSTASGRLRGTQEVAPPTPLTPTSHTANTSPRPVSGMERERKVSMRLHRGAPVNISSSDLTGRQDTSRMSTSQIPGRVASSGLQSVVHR

[3] = target: Tyrosine-protein kinase HCK (Homo sapiens) (UniProt P08631); experiment: Inhibition of human HCK catalytic domain expressed in baculovirus assessed as substrate phosphorylation using fluorescence-labelled peptides as substrate at 0.06 uM after 90 mins by microfluidic peptide phosphorylation assay
Sequence of Tyrosine-protein kinase HCK (Homo sapiens) (P08631 2-526 limits assumed): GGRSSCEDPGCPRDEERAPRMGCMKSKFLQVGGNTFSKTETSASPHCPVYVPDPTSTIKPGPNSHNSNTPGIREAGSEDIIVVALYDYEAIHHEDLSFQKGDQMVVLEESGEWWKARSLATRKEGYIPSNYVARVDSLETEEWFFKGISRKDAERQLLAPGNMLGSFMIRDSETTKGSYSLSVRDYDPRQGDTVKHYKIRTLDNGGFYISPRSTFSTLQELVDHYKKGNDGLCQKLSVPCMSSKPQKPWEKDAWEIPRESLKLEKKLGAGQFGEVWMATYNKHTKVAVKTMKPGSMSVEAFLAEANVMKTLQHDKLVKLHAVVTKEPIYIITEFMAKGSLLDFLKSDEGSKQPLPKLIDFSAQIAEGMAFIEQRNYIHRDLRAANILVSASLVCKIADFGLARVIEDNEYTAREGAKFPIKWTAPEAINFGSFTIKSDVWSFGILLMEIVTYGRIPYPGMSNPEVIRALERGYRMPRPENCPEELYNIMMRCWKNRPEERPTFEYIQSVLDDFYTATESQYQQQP

[4] = target: Tyrosine-protein kinase Lyn (Homo sapiens) (UniProt P07948); experiment: Inhibition of human full length LYN expressed in baculovirus assessed as substrate phosphorylation using fluorescence-labelled peptides as substrate at 420 uM after 90 mins by microfluidic peptide phosphorylation assay
Sequence of Tyrosine-protein kinase Lyn (Homo sapiens) (P07948 2-512 limits assumed): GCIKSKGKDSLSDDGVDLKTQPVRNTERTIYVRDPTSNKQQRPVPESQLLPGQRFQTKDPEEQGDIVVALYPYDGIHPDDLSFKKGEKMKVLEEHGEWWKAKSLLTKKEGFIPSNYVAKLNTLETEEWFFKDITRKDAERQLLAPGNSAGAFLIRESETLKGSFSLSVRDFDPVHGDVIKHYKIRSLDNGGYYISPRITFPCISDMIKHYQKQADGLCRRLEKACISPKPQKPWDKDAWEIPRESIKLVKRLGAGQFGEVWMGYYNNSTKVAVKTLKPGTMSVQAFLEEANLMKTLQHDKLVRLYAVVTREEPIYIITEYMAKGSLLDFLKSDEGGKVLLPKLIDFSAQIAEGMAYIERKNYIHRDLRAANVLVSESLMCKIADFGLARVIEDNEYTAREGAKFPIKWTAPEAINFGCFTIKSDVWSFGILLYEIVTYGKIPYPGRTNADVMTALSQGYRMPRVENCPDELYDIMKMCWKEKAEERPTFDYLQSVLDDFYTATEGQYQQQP

Homo sapiens = organism: Homo sapiens; experiment: Inhibition of human P70S6K catalytic domain expressed in baculovirus assessed as substrate phosphorylation using fluorescence-labelled peptides as substrate at 420 uM after 90 mins by microfluidic peptide phosphorylation assay
[5] = target: Fibroblast growth factor receptor 1 (Homo sapiens) (UniProt P11362); experiment: Inhibition of human FGFR1 catalytic domain expressed in baculovirus assessed as substrate phosphorylation using fluorescence-labelled peptides as substrate at 95 uM after 90 mins by microfluidic peptide phosphorylation assay
Sequence of Fibroblast growth factor receptor 1 (Homo sapiens) (P11362 22-822 limits assumed): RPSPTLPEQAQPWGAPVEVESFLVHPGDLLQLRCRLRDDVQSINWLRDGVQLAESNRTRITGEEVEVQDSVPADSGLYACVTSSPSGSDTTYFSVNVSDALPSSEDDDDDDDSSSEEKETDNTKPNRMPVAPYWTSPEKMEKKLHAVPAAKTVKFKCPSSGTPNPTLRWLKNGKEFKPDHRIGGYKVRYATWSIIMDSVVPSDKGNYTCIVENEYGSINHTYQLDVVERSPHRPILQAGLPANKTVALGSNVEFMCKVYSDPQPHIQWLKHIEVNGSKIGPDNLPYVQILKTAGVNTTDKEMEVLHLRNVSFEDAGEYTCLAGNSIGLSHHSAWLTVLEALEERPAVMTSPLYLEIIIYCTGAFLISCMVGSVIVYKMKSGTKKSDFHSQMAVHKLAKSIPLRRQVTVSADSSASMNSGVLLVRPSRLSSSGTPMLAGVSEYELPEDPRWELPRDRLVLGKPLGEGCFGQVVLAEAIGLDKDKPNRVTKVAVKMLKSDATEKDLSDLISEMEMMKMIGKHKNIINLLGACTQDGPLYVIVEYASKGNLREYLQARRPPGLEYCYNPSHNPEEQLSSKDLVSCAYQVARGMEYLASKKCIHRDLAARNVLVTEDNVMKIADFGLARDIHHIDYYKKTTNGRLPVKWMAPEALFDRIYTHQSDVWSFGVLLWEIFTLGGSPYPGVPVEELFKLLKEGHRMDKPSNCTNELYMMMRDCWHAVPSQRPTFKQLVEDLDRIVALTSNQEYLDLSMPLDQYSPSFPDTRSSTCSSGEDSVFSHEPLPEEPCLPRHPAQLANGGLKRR

[6] = target: Tyrosine-protein kinase Lyn (Homo sapiens) (UniProt P07948); experiment: Inhibition of human full length LYN expressed in baculovirus assessed as substrate phosphorylation using fluorescence-labelled peptides as substrate at 95 uM after 90 mins by microfluidic peptide phosphorylation assay
[7] = target: T1, Serine/threonine-protein kinase BRSK2 (Homo sapiens) (UniProt Q8IWQ3); experiment: Inhibition of human truncated BRSK2 expressed in baculovirus assessed as substrate phosphorylation using fluorescence-labelled peptides as substrate at 9 uM after 90 mins by microfluidic peptide phosphorylation assay
T1 sequence (whole entry): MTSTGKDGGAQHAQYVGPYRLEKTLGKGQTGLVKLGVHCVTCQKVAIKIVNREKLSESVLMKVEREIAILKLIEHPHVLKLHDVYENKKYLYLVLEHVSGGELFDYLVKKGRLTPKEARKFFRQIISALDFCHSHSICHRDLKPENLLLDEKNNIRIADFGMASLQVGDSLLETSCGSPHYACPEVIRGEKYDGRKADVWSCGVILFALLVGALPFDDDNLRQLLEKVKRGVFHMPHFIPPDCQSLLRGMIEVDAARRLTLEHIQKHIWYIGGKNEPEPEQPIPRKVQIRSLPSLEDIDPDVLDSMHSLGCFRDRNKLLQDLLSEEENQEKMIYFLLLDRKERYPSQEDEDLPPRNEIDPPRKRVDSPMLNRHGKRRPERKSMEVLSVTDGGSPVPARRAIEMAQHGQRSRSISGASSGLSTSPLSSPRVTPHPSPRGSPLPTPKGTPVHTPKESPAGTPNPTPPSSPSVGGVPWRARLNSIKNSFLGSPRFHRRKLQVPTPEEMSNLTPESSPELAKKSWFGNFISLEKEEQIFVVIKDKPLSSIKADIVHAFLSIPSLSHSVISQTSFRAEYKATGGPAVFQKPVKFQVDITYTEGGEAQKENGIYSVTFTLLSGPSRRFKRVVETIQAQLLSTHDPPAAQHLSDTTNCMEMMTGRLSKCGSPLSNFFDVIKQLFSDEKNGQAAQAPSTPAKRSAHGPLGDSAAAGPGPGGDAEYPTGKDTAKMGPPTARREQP

[8] = target: T2, Testis-specific serine/threonine-protein kinase 1 (Homo sapiens) (UniProt Q9BXA7); experiment: Inhibition of human full length TSSK1 expressed in baculovirus assessed as substrate phosphorylation using fluorescence-labelled peptides as substrate at 1000 uM after 90 mins by microfluidic peptide phosphorylation assay
T2 sequence (whole entry): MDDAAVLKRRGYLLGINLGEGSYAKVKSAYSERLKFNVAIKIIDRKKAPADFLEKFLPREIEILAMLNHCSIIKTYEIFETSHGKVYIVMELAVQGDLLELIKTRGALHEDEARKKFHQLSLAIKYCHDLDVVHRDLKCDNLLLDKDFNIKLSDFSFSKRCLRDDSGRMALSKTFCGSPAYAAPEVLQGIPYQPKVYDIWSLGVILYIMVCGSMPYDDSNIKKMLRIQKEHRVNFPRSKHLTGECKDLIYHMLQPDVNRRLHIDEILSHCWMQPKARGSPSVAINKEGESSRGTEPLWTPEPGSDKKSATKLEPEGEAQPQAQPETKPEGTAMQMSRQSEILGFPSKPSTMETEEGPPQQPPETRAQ

[9] = target: T3, Calcium/calmodulin-dependent protein kinase type IV (Homo sapiens) (UniProt Q16566); experiment: Inhibition of human full length CAMK4 expressed in baculovirus assessed as substrate phosphorylation using fluorescence-labelled peptides as substrate at […] after 90 mins by microfluidic peptide phosphorylation assay
T3 sequence (whole entry): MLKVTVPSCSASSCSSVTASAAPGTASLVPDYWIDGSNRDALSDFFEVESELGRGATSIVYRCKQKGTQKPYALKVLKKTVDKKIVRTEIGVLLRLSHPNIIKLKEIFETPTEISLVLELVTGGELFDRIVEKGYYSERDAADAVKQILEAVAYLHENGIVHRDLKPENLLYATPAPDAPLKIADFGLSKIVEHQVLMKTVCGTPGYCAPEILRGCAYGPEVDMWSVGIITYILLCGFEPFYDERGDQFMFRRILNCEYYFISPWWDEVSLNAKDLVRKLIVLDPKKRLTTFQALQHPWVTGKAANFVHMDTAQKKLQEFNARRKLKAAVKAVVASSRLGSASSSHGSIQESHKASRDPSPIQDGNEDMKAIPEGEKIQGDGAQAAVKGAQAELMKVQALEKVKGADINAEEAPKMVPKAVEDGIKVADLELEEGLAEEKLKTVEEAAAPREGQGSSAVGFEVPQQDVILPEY

[10] = target: T2, Testis-specific serine/threonine-protein kinase 1 (Homo sapiens); experiment: Inhibition of human full length TSSK1 expressed in baculovirus assessed as substrate phosphorylation using fluorescence-labelled peptides as substrate at 8 uM after 90 mins by microfluidic peptide phosphorylation assay
[11] = target: T3, Calcium/calmodulin-dependent protein kinase type IV (Homo sapiens); experiment: Inhibition of human full length CAMK4 expressed in baculovirus assessed as substrate phosphorylation using fluorescence-labelled peptides as substrate at 8 uM after 90 mins by microfluidic peptide phosphorylation assay
[12] = target: Tyrosine-protein kinase Lyn (Homo sapiens) (UniProt P07948); conditions: 0.1 uM
Description: Inhibition of human full length LYN expressed in baculovirus assessed as substrate phosphorylation using fluorescence-labelled peptides as substrate at 0.1 uM after 90 mins by microfluidic peptide phosphorylation assay

Sequence of Rho-associated protein kinase 2 (Homo sapiens) (O75116 whole entry, looked up, the tested form may be a part, canonical isoform): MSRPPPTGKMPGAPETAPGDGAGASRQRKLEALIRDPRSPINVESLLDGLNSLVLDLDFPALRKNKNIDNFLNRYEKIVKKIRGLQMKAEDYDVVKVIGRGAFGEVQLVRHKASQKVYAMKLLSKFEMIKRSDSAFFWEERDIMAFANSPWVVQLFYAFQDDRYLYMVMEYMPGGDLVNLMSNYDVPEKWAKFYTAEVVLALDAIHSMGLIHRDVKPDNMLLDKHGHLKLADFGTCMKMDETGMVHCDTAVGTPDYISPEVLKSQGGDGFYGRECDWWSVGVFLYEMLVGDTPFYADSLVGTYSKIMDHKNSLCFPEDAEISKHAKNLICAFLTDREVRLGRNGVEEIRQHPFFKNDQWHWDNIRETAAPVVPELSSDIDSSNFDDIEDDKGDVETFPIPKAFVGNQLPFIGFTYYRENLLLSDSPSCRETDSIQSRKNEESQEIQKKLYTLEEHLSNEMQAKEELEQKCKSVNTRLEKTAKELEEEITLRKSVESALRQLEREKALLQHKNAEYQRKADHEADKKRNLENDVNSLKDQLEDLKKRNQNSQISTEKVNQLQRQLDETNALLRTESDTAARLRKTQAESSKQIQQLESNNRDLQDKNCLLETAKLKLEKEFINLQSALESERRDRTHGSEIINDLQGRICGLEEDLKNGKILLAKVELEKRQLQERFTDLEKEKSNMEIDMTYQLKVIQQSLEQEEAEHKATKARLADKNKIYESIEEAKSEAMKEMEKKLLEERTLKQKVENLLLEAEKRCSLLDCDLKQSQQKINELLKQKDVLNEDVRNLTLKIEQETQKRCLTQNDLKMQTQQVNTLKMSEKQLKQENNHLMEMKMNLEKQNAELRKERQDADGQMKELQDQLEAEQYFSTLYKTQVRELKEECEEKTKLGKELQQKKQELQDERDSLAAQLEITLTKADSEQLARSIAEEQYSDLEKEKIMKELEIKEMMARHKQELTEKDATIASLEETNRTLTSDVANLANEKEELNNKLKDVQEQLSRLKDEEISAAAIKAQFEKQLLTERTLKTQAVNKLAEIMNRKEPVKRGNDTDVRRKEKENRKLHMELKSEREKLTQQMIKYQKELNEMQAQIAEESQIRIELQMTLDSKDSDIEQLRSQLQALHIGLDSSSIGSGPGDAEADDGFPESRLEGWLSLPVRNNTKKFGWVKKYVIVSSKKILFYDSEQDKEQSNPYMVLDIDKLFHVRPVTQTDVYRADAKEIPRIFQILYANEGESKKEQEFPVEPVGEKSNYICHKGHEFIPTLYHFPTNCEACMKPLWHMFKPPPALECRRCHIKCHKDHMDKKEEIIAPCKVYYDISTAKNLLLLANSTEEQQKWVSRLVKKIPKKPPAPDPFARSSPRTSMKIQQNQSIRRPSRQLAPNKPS

## NC1(Cc2ccc(Cl)cc2)CCN(c2ncnc3[nH]ccc23)CC1
[1]
  inhibition: 0%
[2]
  inhibition: 0.5%
[3]
  inhibition: 7%

## c1nc(N2CCOCC2)c2nc[nH]c2n1
[4]
  inhibition: 68%
Homo sapiens
  inhibition: 84.5%

## NCCc1ccc(-c2ncnc3[nH]cnc23)cc1
[5]
  inhibition: 72%
[6]
  inhibition: 65.5%

## NCC1CN(c2ncnc3[nH]c4cnccc4c23)CCO1 (stereo not drawn)
[7]
  inhibition: 36%

## c1cnc2[nH]ccc2c1
[8]
  inhibition: 52.5%

## COC(=O)c1cnc(Nc2cnc(C#N)cn2)cc1NCC1CCNCC1
[9]
  inhibition: 0.5%

## NCC1CCN(c2ncnc3[nH]ccc23)CC1
[10]
  inhibition: 25.5%
[11]
  inhibition: 43%

## C[C@H](CN(C)C)Oc1nc(Nc2cc3cccc(Cl)c3cn2)cnc1C#N
[12]
  inhibition: 0%

— ChEMBL document CHEMBL3132769, “Fragment growing to retain or alter the selectivity of anchored kinase hinge-binding fragments” (Medchemcomm, 2014)
